Measurements as given in the Deep4Chem optical property database.

Experiment: solvent given as SMILES

SMILES: CCN1CCCc2cc3c(cc21)Oc1cc2c(cc1=N3)C(CS(=O)(=O)[O-])CC(C)(C)[N+]=2CCCC(=O)[O-] (stereo unspecified)
- absorption maximum (in O): 655 nm

SMILES: Clc1ccc(/C=C/c2cnc3ccccc3n2)cc1
- absorption maximum (in ClCCl): 355 nm

SMILES: Cc1nc2cc3c4c(cccc4c2o1)C(=O)OC3=O
- absorption maximum (in CCO): 362 nm

SMILES: COc1cc(OC)c2c(c1)c1c(c3ccc(C(C)(C)C)cc32)=[N+]2C(=Nc3c(-c4cc(OC)c(OC)c(OC)c4)c4c5cc(OC)cc(OC)c5c5cc(C(C)(C)C)ccc5c4n3[B-]2(F)F)C=1c1cc(OC)c(OC)c(OC)c1
- absorption maximum (in Cc1ccccc1): 791 nm

SMILES: CC(C)(C)c1ccc2c(c1)c1cc(C(C)(C)C)ccc1n2-c1ccc(N(c2ccc(-c3ccc(-c4ccc(N(c5ccc(-n6c7ccc(C(C)(C)C)cc7c7cc(C(C)(C)C)ccc76)cc5)c5ccc(-n6c7ccc(C(C)(C)C)cc7c7cc(C(C)(C)C)ccc76)cc5)cc4)s3)cc2)c2ccc(-n3c4ccc(C(C)(C)C)cc4c4cc(C(C)(C)C)ccc43)cc2)cc1
- absorption maximum (in ClCCl): 396 nm

SMILES: O=C([O-])c1ccccc1-c1c2cc(I)c(=O)c(I)c-2oc2c(I)c([O-])c(I)cc12
- absorption maximum (in CC(C)O): 532 nm
- absorption maximum (in CCO): 532 nm
- absorption maximum (in CO): 526 nm
- absorption maximum (in O): 521 nm

SMILES: c1cc2ccc3[se]c4ccc5cccc6c(c1)c2c3c4c56
- absorption maximum (in ClC(Cl)Cl): 416.5 nm

SMILES: CC1(C)CC(/C=C/c2ccc(N3CCOCCOCCOCCOCC3)cc2)=CC(=C(C#N)C#N)C1
- absorption maximum (in C1CCOC1): 500 nm
- absorption maximum (in CC#N): 493 nm
- absorption maximum (in CCO): 504 nm
- absorption maximum (in CCOC(C)=O): 496 nm
- absorption maximum (in ClCCl): 502 nm
- absorption maximum (in c1ccccc1): 500 nm

SMILES: O=Cc1ccc(/C=C/c2nc(N3CCOCC3)c3c([n+]2[O-])CCCC3)cc1
- absorption maximum (in ClCCl): 418 nm

SMILES: c1ccc2c(c1)c1ccccc1c1[nH]c(-c3ccc(-c4nc5c6ccccc6c6ccccc6c5[nH]4)cc3)nc21
- absorption maximum (in C1CCOC1): 411 nm
- absorption maximum (in CC#N): 412 nm
- absorption maximum (in CCO): 410 nm
- absorption maximum (in CS(C)=O): 410 nm
- absorption maximum (in ClCCl): 413 nm

SMILES: CC(C)c1ccc2ccc3c(C(C)C)ccc4ccc1c2c43
- absorption maximum (in CCCCCC): 345 nm
- absorption maximum (in CO): 343 nm
- absorption maximum (in ClCCl): 346 nm

SMILES: C(=C\c1cnc2ccccc2n1)/c1ccc(N(c2ccccc2)c2ccccc2)cc1
- absorption maximum (in C1CCOC1): 423 nm
- absorption maximum (in CC#N): 425 nm
- absorption maximum (in CS(C)=O): 436 nm
- absorption maximum (in ClCCl): 427 nm

SMILES: c1ccc(-c2cc3c(oc4ccccc43)c(-c3ccccc3)[o+]2)cc1
- absorption maximum (in CC#N): 385 nm
- absorption maximum (in ClCCCl): 395 nm

SMILES: COc1ccc(C2=[N+]3C(=Nc4c(-c5ccccc5-c5ccc(C(C)(C)C)cc5)cc(-c5ccc(OC)cc5)n4[B-]3(F)F)c3c2c2cc(C(C)(C)C)ccc2c2ccccc32)cc1
- absorption maximum (in Cc1ccccc1): 701 nm

SMILES: CC1=CC(C)=[N+]2C1=C(c1ccc(I)cc1)c1c(C)cc(C)n1[B-]2(F)F
- absorption maximum (in ClC(Cl)Cl): 504 nm

SMILES: CC1(C)c2ccccc2N(c2ccc(-c3nc(C#N)c(C#N)nc3-c3ccc(N4c5ccccc5C(C)(C)c5ccccc54)cc3)cc2)c2ccccc21
- absorption maximum (in Cc1ccccc1): 436 nm

SMILES: Clc1ccc(/C=C/c2nc3ccccc3s2)cc1
- absorption maximum (in C1CCCCC1): 340 nm
- absorption maximum (in CO): 340 nm

SMILES: CCCCCCCCC1(CCCCCCCC)c2cc(-c3ccc(C#N)cc3)ccc2-c2ccc(-c3ccc(C#N)cc3)cc21
- absorption maximum (in ClC(Cl)Cl): 341 nm

SMILES: CN1C(=CC2=C([O-])C(=CC3=[N+](C)c4ccc(Cl)cc4C3(C)C)C2=O)C(C)(C)c2cc(Cl)ccc21
- absorption maximum (in CO): 635 nm
- absorption maximum (in ClC(Cl)Cl): 641 nm
- absorption maximum (in ClCCl): 641 nm

SMILES: Cc1cc(C)c(B(c2ccccc2N(c2ccccc2)c2ccccc2)c2c(C)cc(C)cc2C)c(C)c1
- absorption maximum (in Cc1ccccc1): 415 nm

SMILES: CCCCCCCCCCCCN1C(=O)c2c(c3ccc4cc(-c5ccc(OC)cc5)c(OC)cc4c3c3c2ccc2cc(-c4ccc(OC)cc4)c(OC)cc23)C1=O
- absorption maximum (in ClCCl): 443 nm

SMILES: F[B-]1(F)Oc2ccccc2-c2cc(-n3c4ccc(-c5ccccc5)cc4c4cc(-c5ccccc5)ccc43)cc[n+]21
- absorption maximum (in Cc1ccccc1): 374 nm

SMILES: c1ccc(-c2nc(-c3ccc(-c4cccs4)s3)[nH]c2-c2ccccc2)cc1
- absorption maximum (in CC#N): 365 nm

SMILES: O=Cc1ccc(-c2ccc(-c3nc4ccccc4s3)c(O)c2)s1
- absorption maximum (in CCO): 376 nm

SMILES: Cc1cccc(Nc2ccccc2C(=O)O)c1C
- absorption maximum (in CC#N): 351 nm
- absorption maximum (in CCOC(C)=O): 351 nm
- absorption maximum (in CO): 345 nm
- absorption maximum (in ClC(Cl)Cl): 357 nm

SMILES: c1ccc(N(c2ccccc2)c2ccc(-c3ccc4c(c3)C3(c5cc(-c6ccc(N(c7ccccc7)c7ccccc7)cc6)ccc5S4)c4ccccc4-c4ccccc43)cc2)cc1
- absorption maximum (in ClCCl): 356 nm

SMILES: N#Cc1c(N2c3ccccc3C(c3ccccc3)(c3ccccc3)c3ccccc32)cccc1N1c2ccccc2C(c2ccccc2)(c2ccccc2)c2ccccc21
- absorption maximum (in Cc1ccccc1): 369 nm

SMILES: Cc1cc(C)c(C2=C3C=CC(c4ccc5c(ccc6ccccc65)c4)=[N+]3[B-](F)(F)n3c2ccc3-c2ccc3c(ccc4ccccc43)c2)c(C)c1
- absorption maximum (in ClC(Cl)Cl): 579 nm

SMILES: C=C
- absorption maximum (in CCCCCCC): 162 nm

SMILES: COc1ccc(C2=C(C)C3=C(c4c(-c5ccccn5)nc5ccccn45)c4c(C)c(-c5ccc(OC)cc5)c(C)n4[B-](F)(F)[N+]3=C2C)cc1
- absorption maximum (in ClCCl): 555 nm

SMILES: COc1ccc2c3c(c4ccc(OC)cc4c2c1)C(C)(C)c1ccccc1-3
- absorption maximum (in C1CCCCC1): 388 nm

SMILES: CC(C)(C)NC(=O)c1ccc(Br)c2ccc3c4ccccc4c4ccccc4c3c12
- absorption maximum (in ClCCl): 343 nm

SMILES: CCCCCCn1c2ccccc2c2cc(/C=C/c3cc(=O)oc4cc(C)ccc34)ccc21
- absorption maximum (in CS(C)=O): 405 nm
- absorption maximum (in ClC(Cl)Cl): 393 nm

SMILES: CCC[Si](CCC)(CCC)c1cc2ccc3cccc4ccc(c1C(=O)NC(C)(C)C)c2c34
- absorption maximum (in ClC(Cl)Cl): 382 nm

SMILES: c1ccc2c(c1)Cc1ccccc1N2c1c2ccccc2cc2ccccc12
- absorption maximum (in Cc1ccccc1): 416 nm

SMILES: CC[N+]1(CC)CN2C(=N1)C(C(=O)O)=Cc1cc(F)ccc12
- absorption maximum (in O): 375 nm
